A melting point compilation (Tetko et al.; mined from patent text by program, amines drawn as free bases though some values may be those of a salt)

melting point [°C] | SMILES
139 to 140 | CN1C(=O)C2(COc3cc4c(cc32)OCCO4)c2c(C(=O)NC3CCCCC3)cccc21 (configuration not stated)
275 to 277 | Cc1nc2cccc(F)c2c(=O)n1C1CCC(=O)NC1=O (configuration not stated)
138 to 140 | Cc1c(Br)c2cnnc(Cl)c2n1Cc1ccccc1
214 | CC(=O)N1c2ccccc2Sc2c1ccc(O)c2Cl
140 to 142 | COc1ccc2c3c(c(=O)oc2c1)CN(Cc1ccccn1)CC3
178 to 180 | CC(C)c1ccc(Nc2nc(N)nc3c2-c2ccccc2C3)cc1
> 250 | O=C(Nc1cccc2c3c(oc12)CCS(=O)C3)c1c(Cl)cccc1Cl (configuration not stated)
184 to 186 | CCn1cc(C(=O)O)c(=O)c2cc(F)c(N3CCN(C)C(COC(C)C)C3)cc21 (configuration not stated)
178 to 180 | N#Cc1cccc(-c2nc(N3CCC(CC(=O)O)CC3)cc3cccnc23)c1
224 to 225 | Cc1nc2c3c(c(C(=O)NCC(C)O)cc2n1C)CCC1(Cc2ccccc2C1)N3 (configuration not stated)
288 | O=C(Nc1ccccc1)c1sc2c([N+](=O)[O-])c(O)c(O)cc2c1Cl
193 to 195 | Cc1cccc(-c2nc3cccnn3c2-c2ccnc(NC(=O)NC(C)C)c2)c1
152 to 154 | CCOC(=O)C1(C(C)C)OC2(O)C3CCCN3C(=O)C(Cc3ccccc3)N2C1=O (configuration not stated)
110 to 111 | CCCc1cc(OCC)c2c(c1OC)S(=O)(=O)N(CSc1nnnn1-c1ccccc1)C2=O
253 to 254 | CC(C)n1nc(-c2sc(NC(=O)c3ccc(I)cc3)nc2-c2ccccc2)ccc1=O
194 to 196 | O=C(O)C1Cc2cc3c(-c4ccccc4F)noc3cc2O1 (configuration not stated)
121 | O=C1CCCc2c1n(CCBr)c1ccc(Cl)cc21

melting point [°C] | SMILES
183 to 184 | CCOC(=O)C1=C(C)Nc2cc[nH]c(=O)c2C1c1ccccc1F (configuration not stated)
180 to 183 | COC(=O)C1=Cc2cc(-c3ccc(F)cc3)ccc2S(=O)(=O)CC1
169 to 170 | COc1ccc2c(c1OC)C(=O)O[C@@H]2[C@H]1c2c(c(Br)c3c(c2OC)OCO3)CCN1C
254 to 255 | COc1cccc(CNC(=O)c2nc3scc(C(=O)NCc4ccc(C(=O)O)cc4)c3c(=O)[nH]2)c1
199 | COc1ccccc1CNc1ccc2cc(Nc3nnc(C4CC4)o3)ccc2n1
187 to 190 | O=C(Nc1ccc2oc(=O)[nH]c2c1)C(=O)N1CCC(Cc2ccccc2)CC1
146 to 147 | CC1(C)Oc2cc(Br)sc2[C@@H](N2CCCCC2=O)[C@@H]1OCc1ccccc1 (relative stereo)
150 to 152 | CCCCc1nc(CC(=O)OC)c(Cl)n1Cc1ccc(NC(=O)c2ccccc2C(=O)O)cc1
100 to 102 | CC(C)c1nc2c(nc1C(C)C)-c1c(c(-c3ccc(C(=O)O)cc3)cn1Cc1cccnc1)CC2
55 to 57 | CN1C(=O)CC[C@]2(C)c3ccc(-c4cccc(CNC(c5ccccc5)c5ccccc5)c4)cc3CC[C@@H]12
138 to 150 | Cc1ccccc1C(=O)Nc1ccc(C(=O)N2Cc3ccccc3Cc3ccccc32)c(Cl)c1
109 to 112 | COc1cccc(CNC(=O)c2cc3c(=O)n(CCOc4ccc(Cl)cc4)c(=O)n(C)c3s2)c1
230 to 232 | CC(C)(C)OC(=O)N1CCc2cc(NC(=O)NCc3ccc4c(c3)CN(C3CCC(=O)NC3=O)C4=O)ccc2C1 (configuration not stated)
139 to 140 | O=C1c2ccccc2C(=O)N1CCc1ccc2c(c1)OCO2
93 to 96 | CC1(c2ccc(Cl)c(Cl)c2)CN(C(=O)c2ccc(F)c3ccccc23)CCN1C(=O)CNC1CCN(Cc2ccccc2)CC1 (racemic)
84 to 85.5 | CCOC(=O)C(=O)c1ccccc1Nc1c(Cl)cccc1Cl
155 to 158 | CCCOCCOC(=O)C1=C(C)NC(C)=C(S(=O)(=O)NC(C)C)C1c1cccc([N+](=O)[O-])c1 (configuration not stated)

The remaining lines, values behind:

SMILES | melting point [°C]
CC(C)(C)NS(=O)(=O)c1ccccc1CCCl | 64 to 65
COC(C)(C(=S)N(C)C)c1ccccn1 (configuration not stated) | 67.8 to 70
O=C1C=CC(OC2CCCCC2)N1 (configuration not stated) | 65 to 66
CC(c1oc2ccccc2c(=O)c1-c1cccc(F)c1)n1ncc2c(Cl)ccnc21 (configuration not stated) | 173 to 176
C=CCOc1cccc(C(C)=O)c1O | 51 to 52
CCON=C(CC)C1=C(O)CC(c2c(C)c([N+](=O)[O-])c(C)c([N+](=O)[O-])c2C)CC1=O (configuration not stated) | 170
CC(=O)SCCNC(=O)[C@H](CSC(C)=O)NC(=O)C(C)C | 125 to 127
CS(=O)c1c(C(=N)NO)nn(-c2c(Cl)cc(C(F)(F)F)cc2Cl)c1N (configuration not stated) | 225 to 226
Cc1cc(O)c(S(=O)Cc2ccc(Cl)c(Cl)c2)c(=O)o1 (configuration not stated) | 144 to 146
[N-]=[N+]=NC1CCCC2(CCCC2)NC1=O (configuration not stated) | 96 to 99
CNC(=S)C1(c2cccnc2)CCCS1 (configuration not stated) | 133
CC(C)c1cccc2c1N(CC(=O)N1CC3CCC(CC3)C1)C(=O)C(NC(=O)Nc1cccc(-c3nnn[nH]3)c1)N=C2c1ccccc1F (configuration not stated) | 212 to 222
COc1cc(OC)c(C2=CCN(C)CC2)c(O)c1C(C)=O | 143 to 144
COc1cc(C(=O)N2CCC(N3CCC(Oc4ccc(F)c(F)c4)CC3)C2)ccc1N (configuration not stated) | 138 to 139
CCC(CC)n1nc(C)c2c(O)nc(C)nc21 | 202 to 203
CC(=N)NS(=O)(=O)C=Cc1ccccc1 | 130 to 134
Cc1c(C)n(CC=Cc2ccccc2)c2c(OCc3ccccc3)nncc12 | 132 to 134
O=C1Nc2ccccc2CCC1Oc1ccc([N+](=O)[O-])c(OCc2ccccc2)c1 (configuration not stated) | 188 to 189
CC(C)CC(C=O)NC(=O)C(Cc1c[nH]cn1)NC(=O)C(CC=Cc1ccccc1)Cc1cccc2ccccc12 (configuration not stated) | 92 to 96
Cc1oc(-c2ccco2)nc1/C=C/c1ccc(/C=C/C=C/C=O)cc1 | 179 to 180
COC(=O)c1ccc(OCC2COC(=O)N2c2ccc(Cl)cc2)cc1 (configuration not stated) | 135 to 136

SMILES | melting point [°C]
CNC(=O)C1=C(C(=O)Nc2cc(OC3CCCC3)c(Cl)cc2F)CCCC1 | 179 to 180
N#Cc1ccc(C=O)c(SCc2ccccc2)c1 | 106 to 109
COc1ccc(C(=O)Nc2ccc(OC)cc2NC(=O)c2ccc(OC)cc2)cc1 | 238 to 239
O=C(O)Cc1ccc(Oc2ccc(C(F)(F)F)cn2)c(Cl)c1 | 138 to 139
BrCc1ccc2ccccc2n1 | 33 to 37
CCOC(=O)Oc1ccc(S(=O)(=O)N2c3cc(Br)ccc3-n3cccc3[C@@H]2CC)cc1 | 137 to 139
CSC(SC)c1cnn(-c2c(Cl)cc(C(F)(F)F)cc2Cl)n1 | 67 to 68
Cc1cccc(-c2n[nH]cc2-c2ccc(F)c(-c3ccc[nH]3)c2)n1 | 141 to 142
NC(=O)c1coc(-c2cccc(C3=Nc4ccc(-n5cccc5)cc4NC(=O)C3)c2)n1 | 232 to 234
COc1ccc(-c2[nH]ccc2S(=O)(=O)C(F)(F)F)cc1 | 138 to 140
ClCc1cc(Cl)nc(Cl)n1 | 32 to 33
CC(=O)O[C@H]1C[C@@H](N=O)C(Cl)O[C@@H]1COS(=O)(=O)c1ccc(C)cc1 (some centres not stated) | 148 to 150
O=C(O)c1cccc(-c2nccc(-c3ccc(F)cc3)n2)c1 | 239 to 241
CCCOc1ccc(-c2scc(-c3ccccc3Cl)c2CC(=O)N=C(N)N)cc1 | 98 to 99
CCOC(=O)N1N=C(c2ccc(N)cc2)c2cc(Cl)ccc2CC1C (configuration not stated) | 95 to 98
CCOC(=O)c1cc(=O)c2ccc(O)cc2o1 | 221 to 223
CSc1nnc(C(N)(c2ccc(Cl)cc2)c2ccc3nc(C)cc(-c4cccc(Cl)c4)c3c2)n1C (configuration not stated) | 128
CC(C)(C)OC(=O)CN1CCN(CC(=O)O)C1=O | 112 to 113
CN1CCC(N(CCO)S(=O)(=O)c2ccc(Nc3nccc(Nc4ccc(F)cc4)n3)cc2)CC1 | 125 to 135
C=C(C)Cc1c(O)cc(C(C)(C)C)c(OC(C)=O)c1C(C)(C)C | 102
Cc1ccc(OCCOCCCCCCNCc2c(CO)ccc(O)c2CO)cc1C | 65 to 68

SMILES | melting point [°C]
N#CCCNC(=O)c1cccc(-c2cccc3cc(Cc4cccc(C(F)(F)F)c4)oc23)c1 | 154 to 155
C=CCn1c(=O)[nH]c(=O)n(-c2ccccc2)c1=O | 63 to 65
CCOCOC1CCC2(C)C(=CCC3C2CCC2(C)C(C(C)CCCC(C)C)CCC32)C1 (configuration not stated) | 64 to 66
CCOC(=O)[C@H](CCc1ccccc1)N[C@@H](C)C(=O)N1N=C(c2ccccc2)S[C@H]1C(=O)O | 180 to 182
CC1COc2c(F)c(F)cc3c(=O)[nH]c(=O)n1c23 (configuration not stated) | 259 to 261
Cc1cnc(C)c(NCCc2c[nH]cn2)n1 | 164 to 165
Brc1nc2ncsc2nc1Br | 142 to 144
O=C(C1CC1)C(C(O)C(Cl)(Cl)Cl)n1cncn1 (configuration not stated) | 173 to 175
Cc1nc(Cn2cnc3c2c(=O)[nH]c(=O)n3C)no1 | 262 to 264
CC(C)CCC(=O)N[C@@H](Cc1ccccc1)C(=O)CSCc1ccco1 | 68 to 71
S=C=Nc1cc(-c2nc(-c3ccco3)no2)ccc1Cl | 131 to 132
CCCCCNc1nc(SC)nc2c(C)n[nH]c12 | 88 to 90
CC(C)CCOC(=O)COc1cc(F)ccc1C(=S)NCc1cccc([N+](=O)[O-])c1 | 56 to 58
COc1cccc(-c2ccccc2)c1C(O)=S | 97 to 98
COc1cc2c(cc1Nc1ncc(Cl)c(N[C@@H]3CCCC[C@H]3NS(C)(=O)=O)n1)CCN(CC(F)(F)F)CC2 | 103 to 110
Cc1cc(CC#N)c(CC#N)cc1C | 103 to 104
CCCc1nc2c(N)nc(C)c(C)c2n1CCCC(N)=O | 226 to 228
O=C(Nc1cccc2c1C(=O)c1c-2n[nH]c1-c1ccc(N2CCC(N3CCCC3)CC2)cc1)NN1CCOCC1 | 247
O=C(CBr)CC(=O)Nc1cccc(C(F)(F)F)c1 | 66 to 68
FC(F)(F)C1(c2ccccc2)CCNCC1 | 87.6
O=C(Cn1c(-c2ccccc2)ccc(NC(=O)OCc2ccc(C(=O)O)cc2)c1=O)NC(Cc1ccccc1)C(=O)C(F)(F)F (configuration not stated) | 214 to 216
